Measured values as given in patent publication US6417159B1 (Queen's University at Kingston, priority 1996, dated 2002).

What was measured:
PC12^nnr5 cells [1] = experiment: NGF-mediated neurite growth by PC12nnr5 cells; type: cell-based, rat; settings: absence or presence of R3 peptide
Procedure: (§1) PC12 cells or PC12^nnr5 cells (Loeb et al., 1991) were seeded on poly-D-lysine-coated (0.1 mg·ml^−1, overnight) 96-well microculture dishes (Falcon) at approximately 800 cells per well with RPMI with 10% fetal calf serum. Peptides were added to replicate wells 48 hours before, or at the time of, addition of NGF. NGF was prepared by the method of Mobley et al. (1976) and used at 1-2 nM. Other additives were diluted at least 100-fold and added to the wells as described. At various times following incubation at 37° C., 5% CO2, wells were scored for neurite-bearing cells by serial counting of representative circumferences of each well.
(§2) A Leitz Diavert inverted microscope with phase optics was used to score neurite growth. For both PC12 cells and sensory neurons, a neurite was scored as such if its calibre from origin to terminal was approximately the same and the length was equal to or greater than 1.5 cell body diameters.

PC12^nnr5 cells [2] = experiment: Uptake of [125I]NGF into PC12nnr5 cells; type: cell-based, rat; settings: 20 pM or 0.2 nM [125I]NGF; saturating R3
Procedure: PC12 cells were removed from culture dishes with CMF, washed, and incubated at a concentration of 10^6 per ml in Hepes-Krebs-Ringer (HKR) buffer buffer with 1 mg·ml^−1 BSA for 90 minutes at 37° C. in the presence of 40 pM [^125I]NGF in the absence and presence of excess unlabeled NGF, and in the absence and presence of R3 peptide. Aliquots of 100 μl were removed in replicates and mircocentrifuged at 10,000×g for 1 minute. Supernatants were removed, tips were cut from the microcentrifuge tube and counted in a gamma counter. Specific binding was defined as the difference between binding of the ligand in the absence and presence of unlabeled NGF, and fractional specific binding in the absence and presence of R3 peptide was compared. Studies of [^125I]NGF uptake into PC12 and PC12^nnr5 cells were carried out in the absence and presence of 10 μM R3 peptide and following a 24-hour exposure of PC12 cultures to 10 μM R3 peptide. Cells were eposed to 20 pM or 0.2 nM [^125I]NGF for periods of time up to 240 minutes (steady state) at 37° C. The cells were then briefly acid-washed as described by Bernd and Greene (1984), and aliquots were prepared for gamma counting as described. NGF was radioiodinated as described in Sutter et al. (1979b).

PC12 cells = experiment: NGF-mediated neurite growth by PC12 cells; type: cell-based, rat
Procedure: as §1, §2

[3] = system: embryonic 19 day rat DRG neurons; experiment: NGF-mediated neurite growth by ED19 rat DRG neurons; type: cell-based
Procedure: Dissociated cells enriched for sensory neurons from DRG of ED8 chick or ED19 rat were prepared as described in detail previously (Sutter et al., 1979a). ED19 rat DRG dissociates were not pre-plated pror to bioassay. Cells were seeded into wells of Terasaki plates previously treated with poly-D-lysine at 700-900 per well in supplemented Ham's F12 medium with 2.5% fetal calf serum and NGF at concentrations between 0.04 and 40 pM. The cells were incubated with the additives as described at 37° C., 5% CO2, and scored at various times for neurite growth by counting all cells on the lower horizontal surface of the wells, which is approximately 15% of the surface area of the top of the tapered wells.
as §2

What does the source list for LDALLAALRRIQR [R3]?
Neurite growth in PC12nnr5 cells with NGF, in words (PC12^nnr5 cells [1]): no effects on neurite growth; Rates of [125I]NGF uptake, in words (PC12^nnr5 cells [2]): not influenced; Effect of R3 on enhancement of NGF-mediated neurite growth in presence of Mg2+, in words (PC12 cells; 10 mM Mg^+2): inhibited completely; Neurite growth-enhancing effect of R3 in presence of pertussis toxin, in words (PC12 cells; PC12 cells pre-treated with pertussis toxin): did not influence; Effect on NGF-mediated neurite growth, co-incubation, in words (PC12 cells; PC12 cells, peptide co-incubated with NGF): enhanced temporally the neurite growth response; Time of maximal effect on NGF-mediated neurite growth (PC12 cells; all concentrations of R3): 40 to 48 h; Effect on neurite growth response to NGF, pre-incubation, in words (PC12 cells; peptide present 24 or 48 hours prior to addition of NGF): inhibited transiently; Effect on NGF-mediated neurite growth, co-incubation, in words [3]: enhancing effect
